Test results taken from patent publication US7737151B2, “Pyrazine kinase inhibitors” (Vertex Pharmaceuticals Incorporated, priority 2005, dated 2010).

Columns and labels:
Format in all cases: biochemical
FLT-3 = target: T1, FLT-3 (Homo sapiens, UniProt P36888); assay: FLT-3 Inhibition Assay, radiometric filter-binding; details: 90 μM ATP, 0.5 mg/ml pE4Y, room temperature
T1 sequence (P36888 27-993): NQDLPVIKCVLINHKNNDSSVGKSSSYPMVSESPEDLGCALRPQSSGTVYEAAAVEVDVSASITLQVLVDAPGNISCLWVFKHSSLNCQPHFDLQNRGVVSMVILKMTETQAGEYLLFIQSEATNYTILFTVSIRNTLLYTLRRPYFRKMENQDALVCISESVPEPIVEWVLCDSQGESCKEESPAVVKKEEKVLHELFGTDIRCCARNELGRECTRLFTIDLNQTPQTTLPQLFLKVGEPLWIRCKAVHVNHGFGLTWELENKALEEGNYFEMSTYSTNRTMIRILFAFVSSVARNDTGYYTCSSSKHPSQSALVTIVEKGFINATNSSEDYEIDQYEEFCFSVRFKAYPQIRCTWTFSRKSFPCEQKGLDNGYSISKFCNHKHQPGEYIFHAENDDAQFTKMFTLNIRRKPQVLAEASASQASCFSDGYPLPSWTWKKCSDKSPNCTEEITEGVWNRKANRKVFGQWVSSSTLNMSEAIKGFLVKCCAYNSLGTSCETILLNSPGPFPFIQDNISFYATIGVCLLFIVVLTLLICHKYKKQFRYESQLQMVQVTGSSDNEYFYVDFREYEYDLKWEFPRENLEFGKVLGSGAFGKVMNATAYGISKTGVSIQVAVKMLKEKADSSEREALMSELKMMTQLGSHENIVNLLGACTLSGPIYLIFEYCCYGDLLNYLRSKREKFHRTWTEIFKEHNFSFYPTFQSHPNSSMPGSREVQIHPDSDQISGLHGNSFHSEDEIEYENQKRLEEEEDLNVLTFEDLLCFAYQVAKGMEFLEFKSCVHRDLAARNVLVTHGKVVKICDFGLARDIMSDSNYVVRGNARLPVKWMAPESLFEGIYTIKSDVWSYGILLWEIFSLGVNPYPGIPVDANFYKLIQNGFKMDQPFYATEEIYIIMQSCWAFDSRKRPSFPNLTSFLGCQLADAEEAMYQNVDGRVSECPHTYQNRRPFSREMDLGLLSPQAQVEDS
Description: Compounds are screened for their ability to inhibit FLT-3 activity using a radiometric filter-binding assay. This assay monitors the 33P incorporation into a substrate poly(Glu, Tyr) 4:1 (pE4Y). Reactions are carried out in a solution containing 100 mM HEPES (pH 7.5), 10 mM MgCl2, 25 mM NaCl, 1 mM DTT, 0.01% BSA and 2.5% DMSO. Final substrate concentrations in the assay are 90 μM ATP and 0.5 mg/ml pE4Y (both from Sigma Chemicals, St Louis, Mo.). The final concentration of a compound of the present invention is generally between 0.01 and 5 μM. Typically, a 12-point titration is conducted by preparing serial dilutions from 10 mM DMSO stock of test compound. Reactions are carried out at room temperature.
Two assay solutions are prepared. Solution 1 contains 100 mM HEPES (pH 7.5), 10 mM MgCl2, 25 mM NaCl, 1 mg/ml pE4Y and […] (containing 0.3 mCi of [γ-33^P]ATP for each reaction). Solution 2 contains 100 mM HEPES (pH 7.5), 10 mM MgCl2, 25 mM NaCl, 2 mM DTT, 0.02% BSA and 3 nM FLT-3. The assay is run on a 96 well plate by mixing 50 μl each of Solution 1 and […] of the compounds of the present invention. The reaction is initiated with Solution 2. […] The amount of ^33P incorporation into pE4y is analyzed by a Packard Top Count Microplate Scintillation Counter (Meriden, Conn.). […]

Aurora-1 (Aurora B) = Aurora-1 (Aurora B) (Homo sapiens, UniProt Q96GD4); assay: Aurora-1 (Aurora B) Inhibition Assay (Radiometric); details: 800 μM ATP, Kemptide, 25° C.; read-out: Ki, Aurora-1 (Aurora B) radiometric assay (sentence prints Aurora-2)
Description: An assay buffer solution is prepared which consisted of 25 mM HEPES (pH 7.5), 10 mM MgCl2, 0.1% BSA and 10% glycerol. A 22 nM Aurora-B solution, also containing 1.7 mM DTT and 1.5 mM Kemptide (LRRASLG), is prepared in assay buffer. To 22 μL of the Aurora-B solution, in a 96-well plate, is added 2 μl of a compound stock solution in DMSO and the mixture allowed to equilibrate for 10 minutes at 25° C. The enzyme reaction is initiated by the addition of 16 μl stock [γ-^33P]-ATP solution (˜20 nCi/μL) prepared in assay buffer, to a final assay concentration of 800 μM. The reaction is stopped after 3 hours by the addition of 16 μL 500 mM phosphoric acid and the levels of ^33P incorporation into the peptide substrate are determined by the following method. […] Levels of non-enzyme catalysed background radioactivity are determined by adding 16 μL of the 500 mM phosphoric acid to control wells, containing all assay components (which acts to denature the enzyme), prior to the addition of the [γ-^33P]-ATP solution. Levels of enzyme catalysed ^33P incorporation are calculated by subtracting mean background counts from those measured at each inhibitor concentration. […] Ki values are calculated from initial rate data by non-linear regression using the Prism software package (Prism 3.0, Graphpad Software, San Diego, Calif.). […]

Aurora-2 (Aurora A) = target: T2, Aurora-2 (Aurora A) (Homo sapiens, UniProt O14965); assay: Aurora-2 (Aurora A) Inhibition Assay, coupled enzyme assay; details: 400 μM ATP, 570 μM Kemptide, 40 nM Aurora-2, 30° C.
T2 sequence (O14965 1-403): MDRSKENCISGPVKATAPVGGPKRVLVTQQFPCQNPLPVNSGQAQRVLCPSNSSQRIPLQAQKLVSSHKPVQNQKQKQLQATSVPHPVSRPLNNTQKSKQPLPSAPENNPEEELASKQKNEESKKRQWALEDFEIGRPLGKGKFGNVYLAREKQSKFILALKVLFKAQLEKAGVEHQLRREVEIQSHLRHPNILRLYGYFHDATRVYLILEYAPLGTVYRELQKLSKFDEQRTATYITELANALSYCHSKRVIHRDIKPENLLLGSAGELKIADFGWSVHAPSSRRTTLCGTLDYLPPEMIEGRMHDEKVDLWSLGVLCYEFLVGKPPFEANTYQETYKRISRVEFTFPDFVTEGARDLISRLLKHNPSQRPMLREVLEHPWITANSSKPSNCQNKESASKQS
Description: Compounds are screened for their ability to inhibit Aurora-2 using a standard coupled enzyme assay (Fox et al., Protein Sci., (1998) 7, 2249). Assays are carried out in a mixture of 100 mM Hepes (pH7.5), 100 mM MgCl2, 1 mM DTT, 25 mM NaCl, 2.5 mM phosphoenolpyruvate, 300 μM NADH, 30 μg/ml pyruvate kinase and 10 μg/ml lactate dehydrogenase. Final substrate concentrations in the assay are 400 μM ATP (Sigma Chemicals) and 570 μM peptide (Kemptide, American Peptide, Sunnyvale, Calif.). Assays are carried out at 30° C. and in the presence of 40 nM Aurora-2.
An assay stock buffer solution is prepared containing all of the reagents listed above, with the exception of Aurora-2 and the test compound of interest. 55 μl of the stock solution is placed in a 96 well plate followed by addition of 2 μl of DMSO stock containing serial dilutions of the test compound (typically starting from a final concentration of 7.5 μM). The plate is preincubated for 10 minutes at 30° C. and the reaction initiated by addition of 10 μl of Aurora-2. Initial reaction rates are determined with a Molecular Devices SpectraMax Plus plate reader over a 10 minute time course. IC50 and Ki data are calculated from non-linear regression analysis using the Prism software package (GraphPad Prism version 3.0cx for Macintosh, GraphPad Software, San Diego Calif., USA). Compounds I-1 and I-2 inhibit Aurora-2 at a Ki value of <0.1 uM.

Sequence of Aurora-1 (Aurora B) (Q96GD4 whole entry): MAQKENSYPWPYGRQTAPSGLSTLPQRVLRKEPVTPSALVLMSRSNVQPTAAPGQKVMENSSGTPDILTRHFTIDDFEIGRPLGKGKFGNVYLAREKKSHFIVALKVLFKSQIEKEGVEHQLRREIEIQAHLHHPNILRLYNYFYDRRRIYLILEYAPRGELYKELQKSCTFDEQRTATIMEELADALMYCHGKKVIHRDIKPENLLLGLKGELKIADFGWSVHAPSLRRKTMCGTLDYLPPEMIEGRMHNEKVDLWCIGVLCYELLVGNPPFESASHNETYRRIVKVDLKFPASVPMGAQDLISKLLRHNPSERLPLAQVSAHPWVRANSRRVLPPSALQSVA

Ki (FLT-3) [nM] | Ki (Aurora-1 (Aurora B)) [nM] | Ki (Aurora-2 (Aurora A)) [nM] | SMILES
< 1000 | < 1000 | < 100 | Cc1cc(Nc2cncc(Sc3ccc(NC(=O)C4CC4)cc3)n2)[nH]n1 [Compound I-2, N-(4-(6-(3-methyl-1H-pyrazol-5-ylamino)pyrazin-2-ylthio)phenyl)cyclopropanecarboxamide]
< 1000 |  | < 100 | Cc1cnc(Nc2cncc(Sc3ccc(NC(=O)C4CC4)cc3)n2)s1 [Compound I-1, N-(4-(6-(5-methylthiazol-2ylamino)pyrazin-2-ylthio)phenyl)cyclopropanecarboxamide]
